# Reference: patent publication US8796219B2, “Target-activated cell/tissue-penetrating peptide for delivery of impermeable compounds and use thereof” (Nano Intelligent Biomedical Engineering Corporation Co. Ltd, priority 2009, dated 2014)
# Where no end group is shown, it is not given here.
# What was measured:
# [1] = tested on: normal cell line (ATCC); assay: Cell-penetrating ability in normal cell line (FACS and confocal laser scanning microscopy of FITC fluorescence); format: cell-based; conditions: FITC label
# Experimental: (§1) In order to examine the cell-penetrating ability of the target-activated cell/tissue-penetrating peptide prepared in Example 1, the C-terminal region of the prepared peptide was labeled with the fluorescence marker FITC, and the fluorescence-labeled peptide was inoculated into each of a normal cell line (ATCC) and a tumor cell line (CT-26, KCLB (Korea cell line bank) 80009).
# (§2) 1 hour after the inoculation, the fluorescence intensities of the cell lines were measured using FACS, and the results of the measurement are shown in FIG. 2. […] In FIG. 2, “(a)” indicates the fluorescence intensity of the normal cell line, and “(b)” indicates the fluorescence intensity of the tumor cell line.
# (§3) Also, whether the peptide penetrated into the cells was observed by a confocal laser scanning microscope. […] In FIG. 3, “(a)” indicates the cell penetration of the peptide in the tumor cell line group, and “(b)” indicates the cell penetration of the peptide in the normal cell line group.
# (§4) The target-activated cell/tissue-penetrating peptide-anticancer protein conjugate prepared in Example 2 above was inoculated into each of a normal cell line (ATCC) and a tumor cell line (CT-26, KCLB (Korea cell line bank) 80009). 1 hour after the inoculation, the penetration of the peptide-gelonin conjugate into the cells was observed by a confocal laser scanning microscope (FIG. 4).
# [2] = tested on: tumor cell line (CT-26); assay: Cell-penetrating ability in tumor cell line (FACS and confocal laser scanning microscopy of FITC fluorescence); format: cell-based, mouse
# Experimental: as §1, §2, §3, §4
Substance,fluorescence intensity of the normal cells (FACS) [1],"fluorescence intensity of the tumor cells (FACS) ([2]; CT-26, 1 hour after inoculation, FITC label)","penetration into the cells observed by confocal laser scanning microscope, tumor cell line ([2]; CT-26, FITC label, nuclei stained with Hoechst 33342)","penetration into the cells observed by confocal laser scanning microscope, normal cell line ([1]; nuclei stained with Hoechst 33342)"
"NH2-EEEEEEEPLGLAG-VSRRRRRRGGRRRR-C-COONH2 (H-EEEEEEEPLGLAGVSRRRRRRGGRRRRC-NH2) [masking domain (EEEEEEE), MMP-cleavable spacer (PLGLAG) and LMWP as protein transduction domain]",the same as that before application of the penetrating peptide,–,–,–
fluorescence-labeled peptide: peptide of Example 1 with the C-terminal region labeled with the fluorescence marker FITC (H-EEEEEEEPLGLAGVSRRRRRRGGRRRRC; also: FITC label on C-terminal region),–,increase,observed,not observed
